The target of one assay is JAK1 (Homo sapiens (Human), UniProt P23458). In words: Jak biochemical HTRF assay, JAK1. The following applies: recombinant GST-tagged catalytic domain. On the technique in general: In TR-FRET formats the signal depends on donor and acceptor labels being close together.
For another assay, the target named is JAK2 (Homo sapiens (Human), UniProt O60674). In words: Jak biochemical HTRF assay, JAK2. The settings on record: recombinant GST-tagged catalytic domain. The procedure:
Jak Biochemical HTRF Assay Protocol
The ability of compounds to inhibit the activity of JAK1, JAK2, JAK3, and Tyk2 was measured using a recombinant purified GST-tagged catalytic domain for each enzyme (Invitrogen JAK1 #M4290, JAK2 #M4290, JAK3 #M4290, Tyk2 #M4290) in an HTRF format biochemical assay. […] The basic assay protocol is as follows: First, 250 nL of diluted compounds in DMSO were dispensed into the wells of a dry 384-well Black plate (Greiner #781076) using a Labcyte Echo 555 acoustic dispenser. Subsequent reagent additions employed an Agilent Bravo. […] After equilibration, 2 μL of 10×ATP in 1× assay buffer was added to initiate the kinase reaction and the plates were shaken and then incubated at room temperature for 120 minutes. […] Plates were shaken and centrifuged and then incubated 60 minutes at room temperature and then read on a Perkin Elmer Envision (λex=337 nm, λem=665 and 615 nm, TRF delay time=20 μs). HTRF signal=10,000*665 nm reading/615 nm reading. After normalization to untreated controls, the percent inhibition of the HTRF signal at each compound concentration was calculated. The plot of percent inhibition versus the log of compound concentration was fit with a 4-parameter dose response equation to calculate IC50 values.
Final Reaction Conditions were:
Examples of the instant invention were evaluated in JAK1 and JAK2 in vitro binding assays.

Setting [1] is: HTRF biochemical assay, read-out: JAK1 IC50.
Setting [2] is: HTRF biochemical assay, read-out: JAK2 IC50.
Where [3] appears, read: JAK1 IC50, HTRF biochemical assay.
The mark [4] stands for this setting: JAK2 IC50, HTRF biochemical assay.

SMILES strings stand for the structures. Like-named read-outs stand apart in the source and are kept apart here.

Chain of JAK1 (P23458 875-1153): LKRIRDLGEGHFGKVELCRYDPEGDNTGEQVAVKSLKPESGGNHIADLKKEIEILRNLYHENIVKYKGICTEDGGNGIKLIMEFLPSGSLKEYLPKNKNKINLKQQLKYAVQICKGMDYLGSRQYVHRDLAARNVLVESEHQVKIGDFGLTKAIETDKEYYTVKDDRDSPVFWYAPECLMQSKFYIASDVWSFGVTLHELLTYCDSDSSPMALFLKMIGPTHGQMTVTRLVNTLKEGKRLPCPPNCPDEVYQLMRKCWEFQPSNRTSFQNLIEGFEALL
Chain of JAK2 (O60674 849-1124): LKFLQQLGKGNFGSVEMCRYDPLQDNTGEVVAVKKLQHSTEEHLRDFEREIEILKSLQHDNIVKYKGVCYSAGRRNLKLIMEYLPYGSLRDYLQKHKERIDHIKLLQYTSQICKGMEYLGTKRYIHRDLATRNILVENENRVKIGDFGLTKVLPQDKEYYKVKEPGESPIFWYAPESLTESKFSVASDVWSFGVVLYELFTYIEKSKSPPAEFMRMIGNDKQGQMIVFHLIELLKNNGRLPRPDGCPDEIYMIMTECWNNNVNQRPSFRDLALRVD

By IC50 is commonly meant the concentration that gives 50% inhibition. Consider `N#C[C@H]1CCCC[C@@H]1n1nc(Nc2ccc(C(O)C(F)(F)F)cc2)c2c(=O)[nH]ccc21` (single isomer, unassigned) [Example 3-8], for which the half-inhibitory concentration (IC50) at JAK1 (setting [1]) is 0.13 nM; at JAK2 (setting [2]) it was 0.82 nM. Consider `N#C[C@H]1CCCC[C@@H]1n1nc(Nc2ccc(C(O)C(F)(F)F)cc2)c2c(=O)[nH]ccc21` (single isomer, unassigned) [Example 3-9, (1S,2S)-2-[4-oxo-3-({4-[(1S or 1R)-2,2,2-trifluoro-1-hydroxyethyl]phenyl}amino)-4,5-dihydro-1H-pyrazolo[4,3-c]pyridin-1-yl]cyclohexanecarbonitrile], for which the concentration for half-maximal inhibition (IC50) on JAK1 (setting [1]) was found to be 0.081 nM; on JAK2 (setting [2]), 0.54 nM. With `N#C[C@H]1CCCC[C@@H]1n1nc(Nc2ccc(C3CCCN3)cc2)c2c(=O)[nH]ccc21` (single isomer, unassigned) [Example 3-71, (1S,2S)-2-[4-oxo-3-({4-[(2S or 2R)-pyrrolidin-2-yl]phenyl}amino)-4,5-dihydro-1H-pyrazolo[4,3-c]pyridin-1-yl]cyclohexanecarbonitrile], the IC50 at JAK1 (setting [1]) was 0.27 nM; on JAK2 (setting [2]), 0.54 nM. On to `N#C[C@H]1CCCC[C@@H]1n1nc(Nc2ccc(C3CCCN3)cc2)c2c(=O)[nH]ccc21` (single isomer, unassigned) [Example 3-72, (1S,2S)-2-[4-oxo-3-({4-[(2R or 2S)-pyrrolidin-2-yl]phenyl}amino)-4,5-dihydro-1H-pyrazolo[4,3-c]pyridin-1-yl]cyclohexanecarbonitrile], for which the IC50 on JAK1 (setting [1]) is 0.45 nM; at JAK2 (setting [2]) it was 0.5 nM. On the same counts, the results for `N#C[C@H]1CCC[C@@H]1n1nc(Nc2ccc(C(N)C(F)(F)F)cc2)c2c(=O)[nH]ccc21` (single isomer, unassigned) [Example 3-103, (1S,2S)-2-[3-({4-[(1R or 1S)-1-amino-2,2,2-trifluoroethyl]phenyl}amino)-4-oxo-4,5-dihydro-1H-pyrazolo[4,3-c]pyridin-1-yl]cyclopentanecarbonitrile] are 0.28 nM and 0.7 nM. On to `N#C[C@H]1CCC[C@@H]1n1nc(Nc2ccc(C(N)C(F)(F)F)cc2)c2c(=O)[nH]ccc21` (single isomer, unassigned) [Example 3-104, (1S,2S)-2-[3-({4-[(1S or 1R)-1-amino-2,2,2-trifluoroethyl]phenyl}amino)-4-oxo-4,5-dihydro-1H-pyrazolo[4,3-c]pyridin-1-yl]cyclopentanecarbonitrile], for which the 50% inhibitory concentration (IC50) at JAK1 (setting [1]) came out at 0.22 nM; on JAK2 (setting [2]), 0.59 nM. As to `CCNC(c1ccc(Nc2nn([C@H]3CCC[C@@H]3C#N)c3cc[nH]c(=O)c23)cc1)C(F)(F)F` (single isomer, unassigned) [Example 3-113, (1S,2S)-2-[3-({4-[(1R or 1S)-1-(ethylamino)-2,2,2-trifluoroethyl]phenyl}amino)-4-oxo-4,5-dihydro-1H-pyrazolo[4,3-c]pyridin-1-yl]cyclopentanecarbonitrile], the IC50 was determined as 0.15 nM at JAK1 (setting [1]) and 0.31 nM at JAK2 (setting [2]). Take `CCNC(c1ccc(Nc2nn([C@H]3CCC[C@@H]3C#N)c3cc[nH]c(=O)c23)cc1)C(F)(F)F` (single isomer, unassigned) [Example 3-114, (1S,2S)-2-[3-({4-[(1S or 1R)-1-(ethylamino)-2,2,2-trifluoroethyl]phenyl}amino)-4-oxo-4,5-dihydro-1H-pyrazolo[4,3-c]pyridin-1-yl]cyclopentanecarbonitrile]: the 50% inhibitory concentration (IC50) on JAK1 (setting [1]) was determined as 0.19 nM; at JAK2 (setting [2]), 0.28 nM. In the same order, the values of `COC(C)(c1ccc(Nc2nn([C@H]3CCCC[C@@H]3C#N)c3cc[nH]c(=O)c23)cc1)C(F)(F)F` (single isomer, unassigned) [Example 3-125, (1S,2S)-2-(4-oxo-3-((4-((R or S)-1,1,1-trifluoro-2-methoxypropan-2-yl)phenyl)amino)-4,5-dihydro-1H-pyrazolo[4,3-c]pyridin-1-yl)cyclohexanecarbonitrile] are 0.32 nM and 0.86 nM. As to `CC1c2cc(Nc3nn([C@H]4CCCC[C@@H]4C#N)c4cc[nH]c(=O)c34)ccc2S(=O)(=O)N1C` (single isomer, unassigned) [Example 3-126, (1S,2S)-2-(3-(((R or S)-2,3-dimethyl-1,1-dioxido-2,3-dihydrobenzo[d]isothiazol-5-yl)amino)-4-oxo-4,5-dihydro-1H-pyrazolo[4,3-c]pyridin-1-yl)cyclohexanecarbonitrile], the values for the concentration for half-maximal inhibition (IC50) on JAK1 (setting [1]) and on JAK2 (setting [2]) were 0.077 nM and 2.5 nM, respectively. On the same counts, the results for `CC1c2cc(Nc3nn([C@H]4CCCC[C@@H]4C#N)c4cc[nH]c(=O)c34)ccc2S(=O)(=O)N1C` (single isomer, unassigned) [Example 3-127, (1S,2S)-2-(3-(((R or S)-2,3-dimethyl-1,1-dioxido-2,3-dihydrobenzo[d]isothiazol-5-yl)amino)-4-oxo-4,5-dihydro-1H-pyrazolo[4,3-c]pyridin-1-yl)cyclohexanecarbonitrile] are 0.33 nM and 2.6 nM. In the case of `N#C[C@H]1CCC[C@@H]1n1nc(Nc2ccc(C(N)C(F)(F)F)cc2)c2c(=O)[nH]ccc21` (single isomer, unassigned) [Example 3-136, (1S,2S)-2-[3-({4-[(1R or 1S)-1-amino-2,2,2-trifluoroethyl]phenyl}amino)-4-oxo-4,5-dihydro-1H-pyrazolo[4,3-c]pyridin-1-yl]cyclopentanecarbonitrile], the half-inhibitory concentration (IC50) at JAK1 (setting [1]) amounted to 0.28 nM; on JAK2 (setting [2]) it was 0.7 nM.

Consider `N#C[C@H]1CCC[C@@H]1n1nc(Nc2ccc(C(N)C(F)(F)F)cc2)c2c(=O)[nH]ccc21` (single isomer, unassigned) [Example 3-137, (1S,2S)-2-[3-({4-[(1S or 1R)-1-amino-2,2,2-trifluoroethyl]phenyl}amino)-4-oxo-4,5-dihydro-1H-pyrazolo[4,3-c]pyridin-1-yl]cyclopentanecarbonitrile], for which the IC50 at JAK1 (setting [1]) is 0.22 nM; at JAK2 (setting [2]), 0.59 nM. For `CC(C)(C)OC(=O)N1[C@@H]2CC[C@H]1C[C@@H](c1ccc(Nc3nn([C@H]4CCCC[C@@H]4C#N)c4cc[nH]c(=O)c34)cc1)C2` (single isomer, unassigned) [Example 3-165], the concentration for half-maximal inhibition (IC50) on JAK1 (setting [3]) amounted to 2.6 nM; at JAK2 (setting [4]), 7.9 nM.

For the compound `CC(C)(C)OC(=O)N1[C@@H]2CC[C@H]1C[C@H](c1ccc(Nc3nn([C@H]4CCCC[C@@H]4C#N)c4cc[nH]c(=O)c34)cc1)C2` (single isomer, unassigned) [Example 3-166], the values for the IC50 at JAK1 (setting [3]) and on JAK2 (setting [4]) were 0.96 nM and 6.5 nM, respectively.

For `N#CCC1(n2nc(Nc3ccc(C(N)C(F)F)cc3)c3c(=O)[nH]ccc32)CCCCC1` (single isomer, unassigned) [Example 9-1, (S or R)-2-(1-(3-(4-(1-Amino-2,2-difluoroethyl)phenylamino)-4-oxo-4,5-dihydro-1H-pyrazolo[4,3-c]pyridin-1-yl)cyclohexyl)acetonitrile], the 50% inhibitory concentration (IC50) stood at 0.19 nM on JAK1 (setting [1]) and 0.47 nM at JAK2 (setting [2]).

As to `N#C[C@H]1CCCC[C@@H]1n1nc(Nc2ccc3c(c2)CCNC3)c2c(=O)[nH]ccc21` [Example 3-156, (1S,2S)-2-[4-oxo-3-(1,2,3,4-tetrahydroisoquinolin-6-ylamino)-4,5-dihydro-1H-pyrazolo[4,3-c]pyridin-1-yl]cyclohexanecarbonitrile], on JAK2 (setting [2]), the IC50 was found to be 2.6 nM.

On to `C[C@H](N[C@@H]1CC[C@H](n2nc(Nc3ccc(Cl)c(F)c3)c3c(=O)[nH]ccc32)[C@@H](C#N)C1)C1CC1` [Example 5-5, (1S,2S,5R)-2-(3-((4-chloro-3-fluorophenyl)amino)-4-oxo-4,5-dihydro-1H-pyrazolo[4,3-c]pyridin-1-yl)-5-(((S)-1-cyclopropylethyl)amino)cyclohexanecarbonitrile], for which the IC50 at JAK2 (setting [2]) was 113 nM. Still for that read-out and setting: as for `C[C@H](N[C@H]1CC[C@H](n2nc(Nc3ccc(Cl)c(F)c3)c3c(=O)[nH]ccc32)[C@@H](C#N)C1)C1CC1` [Example 5-6, (1S,2S,5S)-2-(3-((4-chloro-3-fluorophenyl)amino)-4-oxo-4,5-dihydro-1H-pyrazolo[4,3-c]pyridin-1-yl)-5-(((S)-1-cyclopropylethyl)amino)cyclohexanecarbonitrile], the figure is 55 nM.

Take `N#C[C@H]1C[C@H](N2CCC2)CC[C@@H]1n1nc(Nc2ccc(Cl)cc2)c2c(=O)[nH]ccc21` [Example 5-17, (1S,2S,5R)-5-(azetidin-1-yl)-2-(3-((4-chlorophenyl)amino)-4-oxo-4,5-dihydro-1H-pyrazolo[4,3-c]pyridin-1-yl)cyclohexanecarbonitrile]: on JAK2 (setting [2]), the IC50 was found to be 33 nM. With `N#C[C@H]1C[C@@H](N2CCC2)CC[C@@H]1n1nc(Nc2ccc(Cl)cc2)c2c(=O)[nH]ccc21` [Example 5-18, (1S,2S,5S)-5-(azetidin-1-yl)-2-(3-((4-chlorophenyl)amino)-4-oxo-4,5-dihydro-1H-pyrazolo[4,3-c]pyridin-1-yl)cyclohexanecarbonitrile], the IC50 on JAK2 (setting [2]) was 13 nM.

The values above are taken from patent US9725445B2, “Cycloalkyl nitrile pyrazolo pyridones as Janus kinase inhibitors” (Merck Sharp & Dohme Corp., priority 2013, dated 2017).
